Consider 32 molecules from patent publication US8058243B2, “Method for treating a brain cancer with ifenprodil” (HSC Research and Development Limited Partnership, priority 2006, dated 2011).

Where a name gives a salt, the structure may show the parent alone. Read-outs that look alike come from different tables or passages of the source.

This assay deals with murine neural precursor cells (neurosphere cultures). Description: HTS of LOPAC library against secondary neurosphere cultures, MTT proliferation assay at 3 μM, day 7 (z score, P value). The assay is classed as cell-based, mouse. Background: Tetrazolium assays rely on reduction of a dye to a coloured formazan, in cell work by metabolically active cells.
[1] abbreviates: LOPAC primary screen, neurosphere MTT proliferation, 3 μM, day 7.
Setting [2] is: yes/no: significantly inhibited neurosphere proliferation (P<0.01) in primary screen.
The mark [3] stands for this setting: yes/no: significantly inhibited neurosphere proliferation (P<0.01) in the primary screen.
The mark [4] stands for this setting: LOPAC library screen at 3 μM, secondary neurosphere cultures, MTT.
Setting [5] is: LOPAC library screen, 3 μM, MTT, neurosphere cultures.
Where [6] appears, read: yes = significantly inhibited neurosphere proliferation (P<0.01) in the primary screen.

Consider `O=C(O)C1=CCNCC1` [Isoguvacine hydrochloride], for which the “Z Score” value (LOPAC library screen, 3 μM, MTT, secondary neurosphere cultures, day 7) was −2.22. The Z score under setting [1] is −2.220. For the same molecule, the Activity entry under setting [2] is “no”.
Consider `O=C(/C=C/c1ccc(O)cc1)c1ccc(O)cc1O` [Isoliquiritigenin], for which, for the setting “168 h, 3 µM”, the “Z Score” value is on record as −2.817 and the Z score is −2.817. Also, under setting [3], the Activity entry is recorded as “yes”.
On to `O=C(O)C1CCNCC1` [Isonipecotic acid], for which, for the setting “168 h, 3 µM”, the “Z Score” value is listed as −0.4569 and the Z score is −0.457. In addition, the Activity result under setting [2] is given as “no”.
For the molecule `CCC(NC(C)C)C(O)c1ccc(O)c(O)c1.CS(=O)(=O)O` (stereo not shown) [Isotharine mesylate], the “Z Score” value was −0.6392. The Z score under setting [1] is reported as −0.639. In addition, the Activity entry under setting [2] is listed as “no”.
The corresponding values for `Nc1nc2[nH]c(=O)cnc2c(=O)[nH]1` [Isoxanthopterin] are 0.2339, 0.234 and “no”.
As for `CC[C@H](C)[C@H]1O[C@]2(CC[C@@H]1C)C[C@@H]1C[C@@H](C/C=C(\C)[C@@H](O[C@H]3C[C@H](OC)[C@@H](O[C@H]4C[C@H](OC)[C@@H](O)[C@H](C)O4)[C@H](C)O3)[C@@H](C)/C=C/C=C3\CO[C@@H]4[C@H](O)C(C)=C[C@@H](C(=O)O1)[C@]34O)O2` [Ivermectin], the “Z Score” value was found to be 1.507. Under setting [1], this molecule had a Z score of 1.507. Further, under setting [2], the Activity entry was “no”.
With `CCCn1c(C)c(C(=O)c2cccc3ccccc23)c2ccccc21` [JWH-015], the “Z Score” value is listed as 0.6223. The same molecule returned a Z score under setting [1] of 0.622. Besides, the Activity entry under setting [2] is “no”.
For `C=C(C)[C@H]1CN[C@H](C(=O)O)[C@H]1CC(=O)O` [Kainic acid] the same measures were −0.3169, −0.317 and “no”.
For `CCN1C[C@]2(C)CC[C@H](O)[C@]34C1[C@@H](C[C@H]23)[C@@]1(O)C[C@H](OC)[C@H]2C[C@@H]4[C@@H]1[C@H]2O` [Karakoline] the same measures were −1.625, −1.625 and “no”.
For the molecule `O=C1Cc2c([nH]c3ccc(Br)cc23)-c2ccccc2N1` [Kenpaullone], where the note is “168 h, 3 µM”, the “Z Score” value is listed as −1.555 and the Z score was −1.555. Besides, the Activity entry under setting [2] is reported as “no”.
For the molecule `O=C(c1ccc(F)cc1)C1CCN(CCn2c(=O)[nH]c3ccccc3c2=O)CC1` [Ketanserin tartrate], under “168 h, 3 µM”, the “Z Score” value is reported as −3.325 and the Z score was −3.325. Also, the Activity entry under setting [3] is “yes”.
With `CC(=O)N1CCN(c2ccc(OCC3COC(Cn4ccnc4)(c4ccc(Cl)cc4Cl)O3)cc2)CC1` (stereo not shown) [Ketoconazole], the Activity entry was “no”. Under “168 h, 3 µM”, the “Z Score” value was 0.586 and the Z score was 0.586.
On to `CC(C(=O)O)c1cccc(C(=O)c2ccccc2)c1` (stereo not shown) [Ketoprofen], for which the Activity result was “no”. Further, under setting [4], the “Z Score” value was −1.164. For the same molecule, the Z score under setting [1] is −1.164.
Consider `NC(CO)(CO)CO.O=C(c1ccccc1)c1ccc2n1CCC2C(=O)O` (stereo not shown) [Ketorolac tris salt], for which the “Z Score” value under setting [4] is −0.7256. The Z score under setting [1] is −0.726. Besides, the Activity entry under setting [2] was “no”.
For the molecule `CN1CCC(=C2c3ccccc3CC(=O)c3sccc32)CC1` [Ketotifen fumarate], the “Z Score” value under setting [5] was 0.9573. The molecule also registered a Z score under setting [1] of 0.957. Further, the Activity result under setting [2] is on record as “no”.
`O=C(O)c1cc(=O)c2ccccc2[nH]1` [Kynurenic acid]: under setting [5], the “Z Score” value stood at 0.7018. Under setting [1], this molecule returned a Z score of 0.702. For the same molecule, the Activity entry under setting [2] is given as “no”.
Regarding `N[C@@H](CCCC(=O)O)C(=O)O` [L-2-aminoadipic acid], under “168 h, 3 µM”, the “Z Score” value is recorded as −2.334 and the Z score was −2.334. Also, the Activity entry under setting [3] is given as “yes”.
Take `COC(=O)[C@@H](N)Cc1ccc(O)c(O)c1.Cl` [L-3,4-Dihydroxyphenylalanine methyl ester hydrochloride]: under setting [5], the “Z Score” value is listed as 0.2769. The same molecule showed a Z score (LOPAC screen, neurosphere MTT proliferation, 3 μM, day 7) of 0.277. The Activity result under setting [2] was “no”.
With `N[C@@H](Cc1ccc(O)c(O)c1)C(=O)O` [L-3,4-Dihydroxyphenylalanine], under “168 h, 3 µM”, the “Z Score” value is recorded as 2.44 and the Z score came to 2.440. Besides, the Activity result under setting [2] is listed as “no”.
As to `CCCCOC(=O)NS(=O)(=O)c1sc(CC(C)C)cc1-c1ccc(Cn2c(CC)nc3c(C)cc(C)nc32)cc1` [L-162,313], the “Z Score” value came out at 0.7923. Under setting [1], the Z score was found to be 0.792. Under setting [2], the Activity entry is “no”.
For `CCCc1c(OCCCOc2ccc(OCC(=O)O)cc2)ccc(C(C)=O)c1O` [L-165,041] the same measures were 0.3062, 0.306 and “no”.
For `Cc1ccccc1N1CCN(S(=O)(=O)CC23CCC(CC2NC(=O)C(N)CCS(C)(=O)=O)C3(C)C)CC1` [L-368,899], the “Z Score” value came to 0.2909. Under setting [1], this molecule registered a Z score of 0.291. In addition, under setting [2], the Activity entry is reported as “no”.
On to `Cc1c(CC(C)(C)C(=O)O)n(Cc2ccc(Cl)cc2)c2ccc(F)cc12` [L-655,240], for which the “Z Score” value is listed as −0.121. This molecule also came in with a Z score under setting [1] of −0.121. The Activity entry under setting [2] was “no”.
Turning to `Nc1ccc(N2C(=O)c3ccccc3C2=O)c(Cl)c1` [L-655,708], the “Z Score” value is recorded as −0.6132. Under setting [1], this molecule displayed a Z score of −0.613. Further, the Activity result under setting [2] was “no”.
Turning to `Cl.c1ccc(CN2CCC3(CCCc4ccccc43)CC2)cc1` [L-687,384 hydrochloride], the “Z Score” value is −9.156. The molecule also had a Z score under setting [1] of −9.156. The Activity entry under setting [6] was “yes”.
With `CC1CN(S(=O)(=O)c2cccc3cnccc23)CCN1.Cl.Cl` [L-701,324], the “Z Score” value is listed as 0.4513. Besides, the Z score under setting [1] came to 0.451.
For `Ic1ccccc1CNC1C2CCN(CC2)C1C(c1ccccc1)c1ccccc1.O=C(O)C(=O)O` [L-703,606 oxalate], under setting [4], the “Z Score” value is recorded as −0.5069. Moreover, the Z score under setting [1] was −0.507. In addition, under setting [6], the Activity result is “no”.
For the molecule `CC(=O)N[C@@H](Cc1c[nH]c2ccccc12)C(=O)OCc1cc(C(F)(F)F)cc(C(F)(F)F)c1` [L-732,138], the “Z Score” value was 0.5027. Besides, the Z score (primary LOPAC screen, 3 μM, MTT, neurosphere proliferation) amounted to 0.503. Moreover, the Activity result (yes/no: significantly inhibited neurosphere proliferation in the primary screen) is listed as “no”.
In the case of `Cl.FC(F)(F)c1cc(CO[C@H]2CCCN[C@H]2c2ccccc2)cc(C(F)(F)F)c1` [L-733,060 hydrochloride], the “Z Score” value is recorded as −1.465. Under setting [1], this molecule showed a Z score of −1.465. For the same molecule, the Activity result under setting [6] is on record as “no”.
As to `OC1(c2ccc(Cl)cc2)CCN(Cc2c[nH]c3ccccc23)CC1` [L-741,626], the “Z Score” value is recorded as −1.009. Under setting [1], this molecule returned a Z score of −1.009. In addition, under setting [6], the Activity result is on record as “no”.
As for `Cl.Clc1ccc(N2CCN(Cc3c[nH]c4ncccc34)CC2)cc1` [L-745,870 hydrochloride], the “Z Score” value is −11.27. Moreover, under setting [1], the Z score was −11.274.
In the case of `Cl.Cl.Cl.Ic1ccc(N2CCN(Cc3c[nH]c4ncccc34)CC2)cc1` [L-750,667 trihydrochloride], the “Z Score” value is −1.184. Also, the Z score under setting [1] is given as −1.184. In addition, under setting [3], the Activity result is on record as “no”.
